Activity data for three compounds are collected here from ChEMBL document CHEMBL1152691, “Design and synthesis of novel 2',3'-dideoxy-4'-selenonucleosides as potential antiviral agents” (Bioorg Med Chem, 2008).

For the assay, the system named is Human immunodeficiency virus. Put plainly: Antiviral activity against HIV. Type of assay: functional, organism-based.

The structures appear in SMILES notation. Active and inactive are the calls of the source. No cut-off for these calls is given here.

Take `Cc1cn([C@H]2CC[C@@H](CO)[Se]2)c(=O)[nH]c1=O`: the outcome was inactive.
Take `Nc1ccn([C@H]2CC[C@@H](CO)[Se]2)c(=O)n1`: the outcome was inactive.
With `O=c1ccn([C@H]2CC[C@@H](CO)[Se]2)c(=O)[nH]1` the entry was “inactive”.
